Where only a bound is given, the exact number is not on record here.

This note sets out measurements from US7569588B2, “Biphenyl compounds useful as muscarinic receptor antagonists” (Theravance, Inc., priority 2004, dated 2009).

Test [1] has as its system MCh-induced depressor responses. As to the kind of experiment: Methacholine-induced depressor responses in conscious guinea pigs. It is filed as in vivo. The note with it: guinea pig, inhalation.
Description: Healthy, adult, male Sprague-Dawley guinea pigs (Harlan, Indianapolis, Ind.), weighing between 200 and 300 g were used in these studies. Under isoflurane anesthesia (to effect), animals were instrumented with common carotid artery and jugular vein catheters (PE-50 tubing). The catheters were exteriorized utilizing a subcutaneous tunnel to the subscapular area. All surgical incisions were sutured with 4-0 Ethicon Silk and the catheters locked with heparin (1000 units/mL). Each animal was administered saline (3 mL, SC) at the end of surgery as well as buprenorphine (0.05 mg/kg, IM). Animals were allowed to recover on a heating pad before being returned to their holding rooms.
Approximately 18 to 20 hours following surgery, the animals were weighed and the carotid artery catheter on each animal was connected to a transducer for recording arterial pressure. Arterial pressure and heart rate was recorded using a Biopac MP-100 Acquisition System. Animals were allowed to acclimate and stabilize for a period of 20 minutes.
Each animal was challenged with MCh (0.3 mg/kg, IV) administered through the jugular venous line and the cardiovascular response was monitored for 10 minutes. […] At 1.5 and 24 hours post-dosing, the animals were re-challenged with MCh (0.3 mg/kg, IV) and the hemodynamic response was determined. […]
The target of test [2] is T1, hM2 receptor (CHO-K1 cell membranes) (Homo sapiens, UniProt P08172).
T1 construct: expressed in transfected cells; host or cells: membranes of CHO (CHO-K1) cells stably expressing the cloned human receptor
T1 sequence (P08172 1-466): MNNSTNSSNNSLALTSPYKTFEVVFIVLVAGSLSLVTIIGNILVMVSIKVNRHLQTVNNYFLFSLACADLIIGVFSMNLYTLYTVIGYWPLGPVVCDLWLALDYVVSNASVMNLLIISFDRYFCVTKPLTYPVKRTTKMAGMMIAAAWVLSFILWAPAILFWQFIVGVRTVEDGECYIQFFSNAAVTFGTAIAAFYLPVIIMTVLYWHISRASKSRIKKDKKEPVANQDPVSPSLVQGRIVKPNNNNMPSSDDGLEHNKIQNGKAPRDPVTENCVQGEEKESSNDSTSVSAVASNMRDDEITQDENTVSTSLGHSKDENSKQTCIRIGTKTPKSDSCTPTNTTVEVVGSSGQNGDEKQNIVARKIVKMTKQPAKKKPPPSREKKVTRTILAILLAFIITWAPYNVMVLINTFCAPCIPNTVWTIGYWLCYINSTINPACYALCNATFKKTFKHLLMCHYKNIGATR
As to the kind of experiment: Blockade of agonist-mediated (oxotremorine-stimulated) [35S]GTPγS binding. The class given is biochemical. The note with it: CHO-K1 cells expressing the hM2 receptor. On the procedure:
B. Blockade of Agonist-Mediated [^35S]GTPγS Binding
In a second functional assay, the functional potency of test compounds can be determined by measuring the ability of the compounds to block oxotremorine-stimulated [^35S]GTPγS binding in CHO—K1 cells expressing the hM2 receptor.
At the time of use, frozen membranes were thawed and then diluted in assay buffer with a final target tissue concentration of 5-10 μg protein per well. The membranes were briefly homogenized using a Polytron PT-2 100 tissue disrupter and then added to the assay plates.
The EC90 value (effective concentration for 90% maximal response) for stimulation of[^35S]GTPγS binding by the agonist oxotremorine was determined in each experiment.
To determine the ability of a test compound to inhibit oxotremorine-stimulated [^35S]GTPγS binding, the following was added to each well of 96 well plates: 25 μL of assay buffer with [^35S]GTPγS (0.4nM), 25 μL of oxotremorine(ECgo) and GDP (3 μM), 25 μL of diluted test compound and 25 μL CHO cell membranes expressing the hM2 receptor. […] Microscint-20 scintillation liquid (50 μL) was added to each well, and each plate was sealed and radioactivity counted on a topcounter (PerkinElmer). Data were analyzed by nonlinear regression analysis with the GraphPad Prism Software package (GraphPad Software, Inc., San Diego, Calif.) using the non-linear regression, one-site competition equation. […]

A further test addresses T2, hM3 receptor (CHO cells) (Homo sapiens, UniProt P20309).
T2 construct: expressed in transfected cells
As to the kind of experiment: Blockade of agonist-mediated calcium release via FLIPR assay. It is filed as cell-based. Particulars: CHO cells stably expressing the hM3 receptor. The source says:
C. Blockade of Agonist-Mediated Calcium Release via FLIPR Assays
Muscarinic receptor subtypes (M1, M3 and M5 receptors), which couple to Gq proteins, activate the phospholipase C (PLC) pathway upon agonist binding to the receptor. As a result, activated PLC hydrolyzes phosphatyl inositol diphosphate (PIP2) to diacylglycerol (DAG) and phosphatidyl-1,4,5-triphosphate (IP3), which in turn generates calcium release from intracellular stores, i.e., endoplasmic and sarcoplasmic reticulum. […] This fluorescence event was measured in real time by the FLIPR, which detected the change in fluorescence from a monolayer of cells cloned with human M1 and M3, and chimpanzee M5 receptors. Antagonist potency was determined by the ability of antagonists to inhibit agonist-mediated increases in intracellular calcium. […]
To determine antagonist potency, the dose-dependent stimulation of intracellular Ca^2+release for oxotremorine was first determined so that antagonist potency can later be measured against oxotremorine stimulation at an EC90 concentration. […] Baseline was determined by measuring the change in fluorescence for 10 seconds prior to addition of agonist. Following agonist stimulation, the FLIPR continuously measured the change of fluorescence every 0.5 to 1 second for 1.5 minutes to capture the maximum fluorescence change. […]

In test [3] the target is T3, hM2 receptor (CHO-K1 cells) (Homo sapiens, UniProt P08172).
T3 construct: expressed in transfected cells; host or cells: CHO-K1 cells
T3 sequence (P08172 1-466): T1 sequence (P08172 1-466)
Kind of test: Blockade of agonist-mediated (oxotremorine) inhibition of forskolin-mediated cAMP accumulation. The class given is cell-based. The note with it: CHO-K1 cells expressing the hM2 receptor. On the procedure: A. Blockade of Agonist-Mediated Inhibition of cAMP Accumulation
In this assay, the functional potency of a test compound was determined by measuring the ability of the test compound to block oxotremorine-inhibition of forskolin-mediated cAMP accumulation in CHO—K1 cells expressing the hM2 receptor.
cAMP assays were performed in a radioimmunoassay format using the Flashplate Adenylyl Cyclase Activation Assay System with ^1251-cAMP (NEN SMP004B, PerkinElmer Life Sciences Inc., Boston, Mass.), according to the manufacturer's instructions.
Cells were rinsed once with dPBS and lifted with Trypsin-EDTA solution (0.05% trypsin/0.53 mM EDTA) as described in the Cell Culture and Membrane Preparation section above. […] The cell pellet was then re-suspended in 10 mL dPBS, and the cells were counted with a Coulter Z1 Dual Particle Counter (Beckman Coulter, Fullerton, Calif.). […]
Reactions were incubated for 10 minutes at 37° C. and stopped by addition of 100 μL ice-cold detection buffer. Plates were sealed, incubated overnight at room temperature and counted the next morning on a PerkinElmer TopCount liquid scintillation counter (PerkinElmer Inc., Wellesley, Mass.). The amount of cAMP produced (pmol/well) was calculated based on the counts observed for the samples and cAMP standards, as described in the manufacturer's user manual. […]
On the technique in general: cAMP levels reflect the balance of adenylyl cyclase and phosphodiesterase activity.

Test [4] has as its system ACh-induced bronchoconstriction. Kind of test: Duration of bronchoprotection in guinea pig model of acetylcholine-induced bronchoconstriction. The class given is in vivo. The note with it: inhalation, 1.5 hours post-dose. On the procedure: Groups of six male guinea pigs (Duncan-Hartley (HsdPoc:DH) Harlan, Madison, Wisc.) weighing between 250 and 350 g were individually identified by cage cards. Throughout the study animals were allowed access to food and water ad libitum.
Test compounds were administered via inhalation over 10 minutes in a whole-body exposure dosing chamber (R&S Molds, San Carlos, Calif.). The dosing chambers were arranged so that an aerosol was simultaneously delivered to 6 individual chambers from a central manifold. Guinea pigs were exposed to an aerosol of a test compound or vehicle (WFI). […] This was measured gravimetrically by comparing pre-and post-nebulization weights of the filled nebulizer.
The bronchoprotective effects of test compounds administered via inhalation were evaluated using whole body plethysmography at 1.5, 24, 48 and 72 hours post-dose.
Forty-five minutes prior to the start of the pulmonary evaluation, each guinea pig was anesthetized with an intramuscular injection of ketamine (43.75 mg/kg), xylazine (3.50 mg/kg) and acepromazine (1.05 mg/kg). […] The depth of anesthesia was monitored and adjusted if the animal responded to pinching of its paw or if the respiration rate was greater than 100 breaths/minute. […]
Starting this program initiated the experimental protocol and data collection. […] By integrating this signal over time, a measurement offlow was calculated for each breath. […]

Test [5] has as its system pilocarpine-evoked salivation. Kind of test: Inhalation guinea pig salivation assay (pilocarpine-evoked salivation). The class given is in vivo.
Protocol: Guinea pigs (Charles River, Wilmington, Mass.) weighing 200-350 g were acclimated to the in-house guinea pig colony for at least 3 days following arrival. Test compound or vehicle were dosed via inhalation (IH) over a 10 minute time period in a pie shaped dosing chamber (R&S Molds, San Carlos, Calif.). Test solutions were dissolved in sterile water and delivered using a nebulizer filled with 5.0 mL of dosing solution. Guinea pigs were restrained in the inhalation chamber for 30 minutes. During this time, guinea pigs were restricted to an area of approximately 110 sq. cm. This space was adequate for the animals to turn freely, reposition themselves, and allow for grooming. […] Upon completion of nebulization, guinea pigs were evaluated at 1.5, 6, 12, 24, 48, or 72 hrs after treatment.
Guinea pigs were anesthetized one hour before testing with an intramuscular (IM) injection of a mixture of ketamine 43.75 mg/kg, xylazine 3.5 mg/kg, and acepromazine 1.05 mg/kg at an 0.88 mL/kg volume. […] Saliva was collected for 10 minutes, at which point the gauze pad was weighed and the difference in weight recorded to determine the amount of accumulated saliva (in mg). The mean amount of saliva collected for animals receiving the vehicle and each dose of test compound was calculated. […] Results were calculated using result means (n=3 or greater). […]

T2 sequence (P20309 whole entry): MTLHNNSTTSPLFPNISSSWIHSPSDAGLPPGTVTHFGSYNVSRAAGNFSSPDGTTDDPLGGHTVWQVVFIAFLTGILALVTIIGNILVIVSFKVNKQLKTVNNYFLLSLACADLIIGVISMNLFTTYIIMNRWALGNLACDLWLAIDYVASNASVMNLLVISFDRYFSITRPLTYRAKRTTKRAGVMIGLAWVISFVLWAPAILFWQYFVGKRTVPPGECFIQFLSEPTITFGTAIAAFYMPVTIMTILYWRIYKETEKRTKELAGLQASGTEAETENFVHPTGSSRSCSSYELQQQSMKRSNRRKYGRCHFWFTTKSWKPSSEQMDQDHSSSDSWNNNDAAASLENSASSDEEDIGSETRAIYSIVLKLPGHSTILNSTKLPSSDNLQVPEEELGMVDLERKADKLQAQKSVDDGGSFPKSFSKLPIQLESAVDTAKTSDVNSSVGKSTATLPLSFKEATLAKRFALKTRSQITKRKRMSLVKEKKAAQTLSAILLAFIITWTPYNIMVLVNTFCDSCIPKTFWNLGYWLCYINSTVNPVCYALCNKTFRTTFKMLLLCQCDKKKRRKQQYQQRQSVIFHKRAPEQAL

As to `O=C(CCN1CCC(OC(=O)Nc2ccccc2-c2ccccc2)CC1)NCCCCCNCCc1ccc(O)cc1` [Example 1, Biphenyl-2-ylcarbamic Acid 1-(2-{5-[2-(4-Hydroxyphenyl)ethylamino]pentylcarbamoyl}ethyl)piperidin-4-yl Ester], the “apparent lung-selectivity index (ratio of anti-depressor ID50 to bronchoprotective ID50)” value in test [1] was “greater than 5”. For `O=C(CCN1CCC(OC(=O)Nc2ccccc2-c2ccccc2)CC1)NCCCCCNCc1ccc(O)cc1` [Example 2, Biphenyl-2-ylcarbamic Acid 1-{2-[5-(4-Hydroxybenzylamino)pentylcarbamoyl]ethyl}piperidin-4-yl Ester], the Ki (in test [2]; at hM3 receptor (CHO cells)) was less than 10 nM each time. `CN(CCCCCNC(=O)CCN1CCC(OC(=O)Nc2ccccc2-c2ccccc2)CC1)Cc1ccc(O)cc1` [Example 3, Biphenyl-2-ylcarbamic Acid 1-(2-{5-[(4-Hydroxybenzyl)methylamino]pentylcarbamoyl}ethyl)piperidin-4-yl Ester] registered an inhibition constant (Ki) in test [3] of less than 10 nM. Further, in test [4], the “PD2(50) for ACh-induced bronchoconstriction” value is listed as “less than 200 μg/mL”. For the compound `N[C@@H](Cc1ccc(O)cc1)C(=O)NCCCCCNC(=O)CCN1CCC(OC(=O)Nc2ccccc2-c2ccccc2)CC1` [Example 6, Biphenyl-2-ylcarbamic Acid 1-(2-{5-[(S)-2-Amino-3-(4-Hydroxyphenyl)propionylamino]pentylcarbamoyl}ethyl)piperidin-4-yl Ester], the “apparent lung selectivity index (ratio of anti-sialagogue ID50 to bronchoprotective ID50)” value in test [5] is listed as “greater than 5”.

By Ki is commonly meant a measure of affinity in units of concentration, obtained from inhibition or displacement.
